Measured values reported in patent US8835440B2, “Cyclic pyrimidin-4-carboxamides as CCR2 receptor antagonists for treatment of inflammation, asthma and COPD” (Boehringer Ingelheim International GmbH, priority 2008, dated 2014).

Target: T1, CCR2 (Homo sapiens, UniProt P41597)
T1 construct: Membranes were prepared from THP-1 cells; endogenous in cells; host or cells: THP-1 cells (membrane preparation)
T1 sequence (P41597 1-360 isoform P41597-2): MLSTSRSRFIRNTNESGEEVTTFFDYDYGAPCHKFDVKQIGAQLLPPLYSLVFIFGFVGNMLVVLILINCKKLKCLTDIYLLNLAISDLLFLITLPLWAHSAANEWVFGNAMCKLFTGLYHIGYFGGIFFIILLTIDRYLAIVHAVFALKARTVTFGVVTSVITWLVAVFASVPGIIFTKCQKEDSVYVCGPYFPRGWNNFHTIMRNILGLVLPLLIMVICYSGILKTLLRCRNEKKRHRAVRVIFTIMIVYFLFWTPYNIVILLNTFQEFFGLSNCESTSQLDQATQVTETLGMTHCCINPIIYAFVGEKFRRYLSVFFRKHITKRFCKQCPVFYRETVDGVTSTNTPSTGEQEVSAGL
Assay: CCR2 receptor membrane binding assay ([125I]MCP-1, THP-1 cell membranes, SPA beads)
Conditions: for remaining activity at 10 µM: @ 10 μM test compound, THP-1 membranes, read-out: CCR2 % ctrl @ 10 μM; for Ki: dissociation constant hKi, [125I]MCP-1 binding to THP-1 membranes
Description: The above exemplary substances have been tested for binding to CCR2 using a binding assay as outlined herein below:
THP-1 cells (human acute monocytic leukaemia cells) were cultured under standardized conditions at 37° C. and 5% CO2 in a humidified incubator. THP-1 cells were cultivated in RPMI 1640 medium (Gibco 21875) containing 1% MEM-NEAA (Gibso 11140) 2 mM L-glutamine, 1.5 g/L sodium bicarbonate, 4.5 g/L glucose, 10 mM HEPES and 1.0 mM sodium pyruvate, 90%; 10% fetal calf serum (FCS Gibco 10500-064).
Membranes were prepared from THP-1 cells. THP-1 cells were centrifuged at 300×g at 4° C. for 10 min. The cell pellet was resuspendet in Phosphate Buffer Saline (PBS, including 10 μM Pefabloc and a protease inhibitor mix ‘complete’, Boehringer Mannheim (1 tablet/50 ml)), to a concentration of […]. The membrane preparation was performed by disrupting the cells by nitrogen […] (at 50 bar, for 1 h) in a “Nitrogen Bombe” (Parr Instrument). Cell debris was removed by centrifugation (800×g at 4° C., 1 min). The supernatant was centrifuged at 80000×g, 4° C. for 30 min to sediment the cell membranes. Usually 50 mg of protein (Bradford assay) were yielded from 1×10E9 cells. The membranes were resuspendet in 25 mM HEPES, 25 mM MgCl2, 1 mM CaCl2, 10% Glycerine for storage in aliquots at −80° C. in 25 mM HEPES, 25 mM MgCl2, 1 mM CaCl2, 10% Glycerine and stored at −80° C.
Receptor Membrane Binding Assay:
Perkin Elmer NEX 332 Jod 125 MCP-1, Stock: 2200 Ci/mmol solved in 2000 μl assay buffer, stored at −20° C. THP-1 membrane were adjusted with 25 mM HEPES, pH 7.2; 5 mM MgCl2; 0.5 mM CaCl2; 0.2% BSA assay buffer to a concentration of […]. Amersham Biosciences PVT-WGA Beads (RPNQ0001) were adjusted with assay buffer to a concentration of 0.24 mg/30 μl. For preparation of the membrane-bead-suspension membranes and beads were incubated for 30 min at RT under rotation (60 rpm) with a ratio of 1:2. Test compounds dissolved in 100% DMSO to a concentration of 10 mM and are further diluted with 100% DMSO to 1 mM. All additional compound dilutions were obtained with assay buffer, final 1% DMSO. Compounds, membrane-bead-suspension and [125I]MCP-1 (ca. 25000 cpm/10 μl) were incubated. Bound radioactivity was determined by scintillation counter after 8 h. Determination of affinity of test compounds (dissociation constant hKi) is calculated by iterative fitting of experimental data using the “easy sys” program, which is based on law of mass action (Schittkowski K. (1994), Numerische Mathematik, Vol. 68, 129-142).

remaining activity at 10 µM | Ki | Compound
30% | 0.914 µM | Cc1c(NCC2Cc3ccccc32)ncnc1C(=O)N1CCC(N2CCC(O)CC2)CC1 (stereo not drawn) [Example 26]
25% | 0.62 µM | Cc1c(NCC2Cc3ccccc3O2)ncnc1C(=O)N1CCC(N2CCC(O)CC2)CC1 (stereo not drawn) [Example 27]
58% | 4.18 µM | Cc1c(NC2CCCCC2)ncnc1C(=O)N1CCC(N2CCC(O)CC2)CC1 [Example 28]
40% | 2.1 µM | Cc1c(NCc2ccc3occc3c2)ncnc1C(=O)N1CCC(N2CCC(O)CC2)CC1 [Example 29]
18% | 0.446 µM | Cc1ccc(CNc2ncnc(C(=O)N3CCC(N4CCC(O)CC4)CC3)c2C)cc1Cl [Example 30]
28% | 0.79 µM | Cc1ccc(CNc2ncnc(C(=O)N3CCC(N4CCC(O)CC4)CC3)c2C)cc1C [Example 31]
2% | 0.037 µM | CCS(=O)(=O)N(C)C1CCN(C2CCN(C(=O)c3ncnc(NCc4ccc(C)c(Cl)c4)c3C)CC2)CC1 [Example 32]
0% | 0.022 µM | CCS(=O)(=O)N(C)C1CCN(C2CCN(C(=O)c3ncnc(NCc4ccc(C(F)(F)F)c(Cl)c4)c3C)CC2)CC1 [Example 33]
4% | 0.062 µM | CCS(=O)(=O)N(C)C1CCN(C2CCN(C(=O)c3ncnc(NCc4ccc(C(C)C)cc4)c3C)CC2)CC1 [Example 34]
5% | 0.024 µM | CCS(=O)(=O)N(C)C1CCN(C2CCN(C(=O)c3ncnc(NCc4ccc(Cl)c(Cl)c4)c3C)CC2)CC1 [Example 35]
1% | 0.01 µM | CCS(=O)(=O)N(C)C1CCN(C2CCN(C(=O)c3ncnc(NCCc4ccc(Cl)c(Cl)c4)c3C)CC2)CC1 [Example 36]
4% | 0.011 µM | CCS(=O)(=O)N(C)C1CCN(C2CCN(C(=O)c3ncnc(NCc4ccc(C(C)(C)C)cc4)c3C)CC2)CC1 [Example 37]
13% | 0.069 µM | CCS(=O)(=O)N(C)C1CCN(C2CCN(C(=O)c3ncnc(NCC4CCCN(c5ccccc5)C4)c3C)CC2)CC1 (stereo not drawn) [Example 38]
2% | 0.036 µM | CCS(=O)(=O)N(C)C1CCN(C2CCN(C(=O)c3ncnc(NCc4ccc(Cl)c(F)c4)c3C)CC2)CC1 [Example 39]
9% | 0.174 µM | CCS(=O)(=O)N(C)C1CCN(C2CCN(C(=O)c3ncnc(NCC4CCN(c5ccccc5)CC4)c3C)CC2)CC1 [Example 40]
6% | 0.011 µM | CCS(=O)(=O)N(C)C1CCN(C2CCN(C(=O)c3ncnc(NC[C@H]4CCN(c5ccccc5)C4)c3C)CC2)CC1 [Example 41]
16% | 0.433 µM | Cc1c(NCC2CCCN(c3ccccc3)C2)ncnc1C(=O)N1CCC(N2CCOCC2)CC1 (stereo not drawn) [Example 42]
17% | 0.566 µM | Cc1ccc(CNc2ncnc(C(=O)N3CCC(N4CCOCC4)CC3)c2C)cc1Cl [Example 43]
27% | 1.64 µM | Cc1ccc(CNc2ncnc(C(=O)N3CCC(N4CCOCC4)CC3)c2C)cc1F [Example 44]
17% | 0.501 µM | Cc1c(NCc2ccc(Cl)c(F)c2)ncnc1C(=O)N1CCC(N2CCOCC2)CC1 [Example 45]

The remaining lines, values behind:

Compound | remaining activity at 10 µM | Ki
Cc1c(NCc2ccc(C(C)(C)C)cc2)ncnc1C(=O)N1CCC(N2CCC(N(C)S(C)(=O)=O)CC2)CC1 [Example 1] | 1% | 0.032 µM
Cc1c(NCCc2ccc(Cl)c(Cl)c2)ncnc1C(=O)N1CCC(N2CCCCC2)CC1 [Example 2] | 13% | 0.222 µM
Cc1c(NCCc2ccc(Cl)c(Cl)c2)ncnc1C(=O)N1CCC(N2CCC(O)CC2)CC1 [Example 3] | 14% | 0.204 µM
Cc1c(NCc2cccc(C(F)(F)F)c2)ncnc1C(=O)N1CCC(N2CCC(O)CC2)CC1 [Example 4] | 43% | 1.59 µM
Cc1c(NCc2ccc(OC(F)(F)F)cc2)ncnc1C(=O)N1CCC(N2CCC(O)CC2)CC1 [Example 5] | 26% | 0.616 µM
Cc1c(NCc2cc(F)cc(C(F)(F)F)c2)ncnc1C(=O)N1CCC(N2CCC(O)CC2)CC1 [Example 6] | 41% | 1.93 µM
Cc1c(NCc2ccc(C(C)(C)C)cc2)ncnc1C(=O)N1CCC(N2CCC(O)CC2)CC1 [Example 7] | 16% | 0.306 µM
Cc1c(NCc2cccc(OC(F)(F)F)c2)ncnc1C(=O)N1CCC(N2CCC(O)CC2)CC1 [Example 8] | 36% | 1.02 µM
Cc1c(NCc2ccc(C(F)(F)F)cc2)ncnc1C(=O)N1CCC(N2CCC(O)CC2)CC1 [Example 9] | 32% | 0.974 µM
Cc1c(NCc2ccc(C(F)(F)F)c(F)c2)ncnc1C(=O)N1CCC(N2CCC(O)CC2)CC1 [Example 10] | 27% | 0.65 µM
Cc1c(NCCc2cccc(C(F)(F)F)c2)ncnc1C(=O)N1CCC(N2CCC(O)CC2)CC1 [Example 11] | 38% | 1.71 µM
Cc1c(NCCc2ccc(C(F)(F)F)cc2)ncnc1C(=O)N1CCC(N2CCC(O)CC2)CC1 [Example 12] | 29% | 0.664 µM
Cc1c(NCC2CCC(C(F)(F)F)CC2)ncnc1C(=O)N1CCC(N2CCC(O)CC2)CC1 (stereo not drawn) [Example 13] | 42% | 1.33 µM
Cc1c(NCCc2ccc(OC(F)(F)F)cc2)ncnc1C(=O)N1CCC(N2CCC(O)CC2)CC1 [Example 14] | 22% | 0.387 µM
Cc1c(NCCCCc2ccccc2)ncnc1C(=O)N1CCC(N2CCC(O)CC2)CC1 [Example 15] | 14% | 0.2 µM
Cc1c(NCCOc2ccccc2)ncnc1C(=O)N1CCC(N2CCC(O)CC2)CC1 [Example 16] | 40% | 1.9 µM
Cc1c(NCCCc2ccccc2)ncnc1C(=O)N1CCC(N2CCC(O)CC2)CC1 [Example 17] | 18% | 0.302 µM
Cc1c(NCCOCc2ccccc2)ncnc1C(=O)N1CCC(N2CCC(O)CC2)CC1 [Example 18] | 52% | 3.5 µM
Cc1c(NCC2COc3ccccc3C2)ncnc1C(=O)N1CCC(N2CCC(O)CC2)CC1 (stereo not drawn) [Example 19] | 40% | 0.269 µM
Cc1c(NCC2CCN(c3ccccc3)C2)ncnc1C(=O)N1CCC(N2CCC(O)CC2)CC1 (stereo not drawn) [Example 20] | 24% | 0.303 µM
Cc1c(NCc2ccc(C(F)(F)F)cc2F)ncnc1C(=O)N1CCC(N2CCC(O)CC2)CC1 [Example 21] | 51% | 2.66 µM
Cc1c(NC2CCC(c3ccccc3)CC2)ncnc1C(=O)N1CCC(N2CCC(O)CC2)CC1 (stereo not drawn) [Example 22] | 24% | 0.466 µM
Cc1c(NCC2Cc3ccccc3C2)ncnc1C(=O)N1CCC(N2CCC(O)CC2)CC1 [Example 23] | 7% | 0.169 µM
Cc1c(NC2COc3ccccc3C2)ncnc1C(=O)N1CCC(N2CCC(O)CC2)CC1 (stereo not drawn) [Example 24] | 58% | 4.03 µM
Cc1c(N[C@@H]2CCc3ccccc3C2)ncnc1C(=O)N1CCC(N2CCC(O)CC2)CC1 [Example 25] | 47% | 2.41 µM
